In brackets after ≈: the same amount, converted by molar mass. Where two headings read alike, the source gives them in different places.
Key:
[1] = system: Salmonella typhimurium ATCC 14028; test: MIC determination; assay type: cell-based; settings: 18 h
Protocol: (§1) The antibacterial activity of tested samples was assessed against both gram-positive bacteria (Staphylococcus aureus ATCC 25923, Staphylococcus aureus ATCC 6538, Staphylococcus epidermidis ATCC 12228, Enterococcus faecalis ATCC 29212, Listeria monocytogenes ATCC 19115, Bacillus subtilis ATCC 6633, Bacillus cereus ATCC 10876) and gram-negative bacteria (Escherichia coli ATCC 10530, Salmonella typhimurium ATCC 14028). Antibacterial properties were evaluated using both the dilution method (employing DMSO and 96-well plates) and the diffusion-well method (using Mueller Hinton Agar, Merck, Germany).
(§2) The minimum inhibitory concentrations (MICs) of the tested samples were evaluated against a panel of reference microorganisms obtained from the American Type Culture Collection (ATCC), including Gram-negative bacteria (Escherichia coli ATCC 10530, Salmonella typhimurium ATCC 14028), and Gram-positive bacteria (Staphylococcus aureus ATCC 25923, Staphylococcus aureus ATCC 6538, Staphylococcus epidermidis ATCC 12228, Enterococcus faecalis ATCC 29212, Listeria monocytogenes ATCC 19115, Bacillus subtilis ATCC 6633), and one strain (Bacillus cereus ŁOCK 0807) obtained from the Pure Culture of Industrial Microorganisms of the Institute of Fermentation Technology and Microbiology ŁOCK 105 (Łódź, Poland).
(§3) The microorganism cultures with a density of 1.5 × 10^8 CFU mL^−1 (corresponding to a McFarland standard of 0.5) were plated on Mueller–Hinton Agar (Merck, Germany) following the procedures recommended by the European Committee on Antimicrobial Susceptibility Testing (EUCAST).[47] Wells measuring 10 mm in diameter were cut into the medium. The tested compounds were dissolved in a DMSO solution, which was recommended due to their chemical structures. Subsequently, 100 μL of prepared solutions containing the tested compounds at concentrations ranging from x μg mL^−1 to x μg mL^−1 were added to each well. The plates were incubated at 30 °C (for Bacillus subtilis and Bacillus cereus) or 37 °C (for other bacteria) for 18 hours. After incubation, the minimum inhibitory concentration (MIC value) was determined (the lowest concentration of the tested compounds that prevents bacterial growth) and expressed in μg mL^−1. The experiment was conducted in three independent replicates. Ciprofloxacin (Sigma Aldrich, Saint Louis, MO, USA) was used as a reference antimicrobial agent against Gram-negative bacteria, while vancomycin (Sigma Aldrich, Saint Louis, MO, USA) was used as a reference antimicrobial agent against Gram-positive bacteria.

[2] = system: Escherichia coli ATCC 10530; test: MIC determination; assay type: cell-based; settings: Escherichia coli ATCC 10530; 18 h
Protocol: as §1, §2, §3

[3] = system: normal skin fibroblast BJ cells; test: MTT cell viability assay; assay type: cell-based, human; settings: BJ normal fibroblasts, 48 hours of incubation
Protocol: (§4) The glioblastoma cell lines LN-229 and U87 and the reference human normal skin fibroblast BJ were obtained from the American Type Culture Collection (ATCC). Cells were grown as monolayers when cultured in cell culture flasks and cultured in Dulbecco's Modified Eagle Medium (DMEM) – LN-229 and Eagle's Minimum Essential Medium (EMEM) – U87 and BJ, supplemented with 10% (v/v) fetal bovine serum, penicillin (10 000 U mL^−1), streptomycin (10 mg mL^−1) and amphotericin B (250 μg mL^−1). The cells were incubated at 37 °C, 5% CO2 atmosphere. The cells were maintained in the logarithmic growth phase by regular passage at 80% confluence.
(§5) The cytotoxicity of the tested compounds was evaluated against both human glioblastoma LN-229 and U-87 as well as normal BJ cell lines. The cells were plated in 96-well culture plates (2 × 10^4 well) and after 24 h incubation the cells were treated with the tested compounds in the concentration range 1–50 μM. The cells were cultured for the next 48 h. The cytotoxicity of the compounds was evaluated using the MTT colorimetric method as previously described.[28,29] IC50 values were determined using the AAT Bioquest IC50 calculator as the concentration of compounds capable of reducing cell viability by 50%. The experiment was performed in triplicate for each concentration. To examine the cytotoxic effect of compounds on cell morphology, cells were examined under an inverted phase contrast microscope Nikon Eclipse Ti with NIS Element software (Tokyo, Japan).

glioblastoma U87 cells = test: MTT cell viability assay; assay type: cell-based, human; settings: 48 hours of incubation
Protocol: as §4, §5

[4] = system: glioblastoma LN-229 cells; test: MTT cell viability assay; assay type: cell-based, human; settings: 48 hours of incubation
Protocol: as §4, §5

B. cereus ŁOCK 0807 = test: Diffusion-well method, inhibition zones; assay type: cell-based, Bacillus cereus; settings: 500 µg/mL, wells 10 mm
B. subtilis ATCC 6633 = test: Diffusion-well method, inhibition zones; assay type: cell-based, Bacillus subtilis; settings: 500 µg/mL, wells 10 mm
Protocol: as §1
(§6) 24 hour bacterial cultures with a density of 1–2 × 10^8 CFU mL^−1 were plated (0.1 mL) on Mueller–Hinton Agar (Merck, Germany). Subsequently, wells with a diameter of 10 mm were cut out from and filled with 100 μL of the tested compound at a concentration of 10–500 μg mL^−1 (diluted in DMSO). After an 18-hour incubation at either 30 °C (for Bacillus ssp.) or 37 °C (for other tested microorganisms), the inhibition zones around the wells were measured, and the results were expressed in millimetres (Table S9 ^†).

S. aureus ATCC 6538 = test: Diffusion-well method, inhibition zones; assay type: cell-based, Staphylococcus aureus; settings: 500 µg/mL, wells 10 mm
Protocol: as §1, §6

S. aureus ATCC 25923 = test: Diffusion-well method, inhibition zones; assay type: cell-based, Staphylococcus aureus; settings: 500 µg/mL, wells 10 mm
Protocol: as §1, §6

E. coli ATCC 10530 = test: Diffusion-well method, inhibition zones; assay type: cell-based, Escherichia coli; settings: 500 µg/mL, wells 10 mm
Protocol: as §1, §6

E. faecalis ATCC 29212 = test: Diffusion-well method, inhibition zones; assay type: cell-based, Enterococcus faecalis; settings: 500 µg/mL, wells 10 mm
Protocol: as §1, §6

[5] = system: L. monocytogenes ATCC 19115; test: Diffusion-well method, inhibition zones; assay type: cell-based, Listeria monocytogenes; settings: 500 µg/mL, wells 10 mm
Protocol: as §1, §6

[6] = system: Staphylococcus aureus ATCC 25923; test: MIC determination; assay type: cell-based; settings: S. aureus ATCC 25923, 18 h
Protocol: as §1, §2, §3

[7] = system: Staphylococcus aureus ATCC 6538; test: MIC determination; assay type: cell-based; settings: S. aureus ATCC 6538, 18 h
Protocol: as §1, §2, §3

[8] = system: Listeria monocytogenes ATCC 19115; test: MIC determination; assay type: cell-based; settings: Listeria monocytogenes ATCC 19115, 18 h
Protocol: as §1, §2, §3

[9] = system: Enterococcus faecalis ATCC 29212; test: MIC determination; assay type: cell-based; settings: E. faecalis ATCC 29212, 18 h
Protocol: as §1, §2, §3

[10] = system: Staphylococcus epidermidis ATCC 12228; test: MIC determination; assay type: cell-based; settings: S. epidermidis ATCC 12228, 18 h
Protocol: as §1, §2, §3

[11] = system: Bacillus subtilis ATCC 6633; test: MIC determination; assay type: cell-based
Protocol: as §1, §2, §3

[12] = system: Bacillus cereus ŁOCK 0807; test: MIC determination; assay type: cell-based; settings: 18 h
Protocol: as §1, §2, §3

[13] = Time-dependent UV-vis solution stability in DMSO; assay type: physicochemical; settings: 0 min to 48 h, room temperature
Description: The stability of metal complexes is a crucial property that provides insight into their interactions with biological molecules, as it directly impacts their reactivity, bioavailability, and effectiveness in therapeutic applications. Additionally, the solubility of these complexes in dimethyl sulfoxide (DMSO) is of considerable importance, as solubility data are essential for optimizing storage conditions and ensuring compatibility with biological assays.[39] DMSO, a widely used solvent in drug discovery, serves as a medium that supports the stability and bioavailability of complexes under assay conditions, which is critical for maintaining the integrity of analytical protocols and enabling accurate assessments of biological activity. For the obtained complexes, the time-dependent UV-vis investigations in DMSO (Fig. 5 and S9 ^†) were carried out from 0 min to 48 h (0 min, 30 min, 1 h, 2 h, 3 h, 24 h, 48 h).
The sample solutions (50 μL (1.0 × 10^−3 M)) of the complexes were prepared in DMSO (Sigma Aldrich, ≥99.9%). The absorption spectra of the complexes were measured with increasing time (0 min, 30 min, 60 min, 2 h, 3 h, 24 h, 48 h) at room temperature. All measurements were performed on the Shimadzu UV-2401PC.

Structure (SMILES) | MIC [2] [µg/mL] | IC50 [3] [µM] | IC50 (glioblastoma U87 cells) [µM] | IC50 [4] [µM] | Inhibition zone (S. aureus ATCC 6538) [mm] | Inhibition zone (S. aureus ATCC 25923) [mm] | Inhibition zone (E. coli ATCC 10530) [mm] | MIC [6] [µg/mL] | MIC [7] [µg/mL] | MIC ([1]; S. typhimurium ATCC 14028) [µg/mL] | MIC [8] [µg/mL] | MIC [9] [µg/mL] | MIC [10] [µg/mL] | MIC ([11]; 18 h) [µg/mL] | MIC ([12]; Bacillus cereus ŁOCK 0807) [µg/mL] | hypochromic effect [13] [%] | other results
O=C(O)c1cn(C2CC2)c2cc(N3CCNCC3)c(F)cc2c1=O [Ciprofloxacin, reference compound] | 1 (≈ 3.02 µM) | – | – | – | – | – | – | – | – | – | – | – | – | – | – | – | MIC ([1]; Salmonella enterica): 1 µg/mL (≈ 3.02 µM)
N.N.[Cl][Pt][Cl] [Cisplatin, reference compound] | – | > 50 | 39.6 ± 1.13 | 29.09 ± 0.23 | – | – | – | – | – | – | – | – | – | – | – | – | –
NC(=NN=Cc1ccccc1)c1cc(Cl)ccn1.O=[N+]([O-])[O-].[Ag+] [Complex 3, AgL3NO3] | 10 | > 50 | 32 ± 7.08 | > 50 | 15 | 15 | 20 | 100 | 50 | 500 | 10 | 50 | 250 | 10 | 50 | 2.31 | Inhibition zone (B. cereus ŁOCK 0807): 18 mm; Inhibition zone (B. subtilis ATCC 6633): 17 mm; Inhibition zone (E. faecalis ATCC 29212): 13 mm; Inhibition zone [5]: 19 mm
NC(=NN=Cc1ccc([N+](=O)[O-])cc1)c1cccc(Cl)n1.NC(=NN=Cc1ccc([N+](=O)[O-])cc1)c1cccc(Cl)n1.[Cd+2].[Cl-].[Cl-] [Complex 7, Cd (L2)2Cl2] | 500 | 41.7 ± 4.18 | > 50 | > 50 | 13 | 15 | 12 | 100 | 500 | > 500 | > 500 | > 500 | > 500 | > 500 | > 500 | 27.7 | shift of peak maxima [13]: 15 nm
NC(=NN=Cc1ccccc1)c1cc(Cl)ccn1.[Cd+2].[Cl-].[Cl-] [Complex 8, CdL3Cl2] | 10 | 25.8 ± 4.48 | 10.9 ± 3.8 | > 50 | – | 15 | 20 | 100 | 500 | > 500 | > 500 | > 500 | > 500 | > 500 | > 500 | 36.3 | shift of peak maxima [13]: 4 nm
NC(=NN=Cc1ccc([N+](=O)[O-])cc1)c1cccc(N2CCCC2)n1.[Cd+2].[Cl-].[Cl-] [Complex 9, CdL4Cl2] | 10 | 1.05 ± 0.32 | > 50 | 45.3 ± 2.18 | 13 | 16 | 20 | 10 | 250 | > 500 | 500 | 10 | > 500 | > 500 | 250 | – | Inhibition zone (B. cereus ŁOCK 0807): 13 mm; Inhibition zone (E. faecalis ATCC 29212): 14 mm; Inhibition zone [5]: 12 mm
N/C(=N\N=C\c1ccc([N+](=O)[O-])cc1)c1cccc(Cl)n1 [Complex L2, 6-chloro-N′-(4-nitrobenzylidene) picolinohydrazonamide] | – | – | – | – | – | – | – | – | – | – | – | – | – | – | – | – | IC50 ([3]; Homo sapiens): 35.5 ± 4.33 µM; IC50 (glioblastoma U87 cells; Homo sapiens, U-87 MG): > 50 µM; IC50 ([4]; Homo sapiens): 40.8 ± 6.12 µM
NC(=NN=Cc1ccccc1)c1cc(Cl)ccn1 [Complex L3, N′-(benzylidene)-4-chloropicolinohydrazonamide] | – | – | – | – | – | – | – | – | – | – | – | – | – | – | – | – | IC50 ([3]; Homo sapiens): > 50 µM; IC50 (glioblastoma U87 cells; Homo sapiens, U-87 MG): > 50 µM; IC50 ([4]; Homo sapiens): > 50 µM
CN[C@H](CC(C)C)C(=O)N[C@H]1C(=O)N[C@@H](CC(N)=O)C(=O)N[C@H]2C(=O)N[C@H]3C(=O)N[C@H](C(=O)N[C@H](C(=O)O)c4cc(O)cc(O)c4-c4cc3ccc4O)[C@H](O)c3ccc(c(Cl)c3)Oc3cc2cc(c3O[C@@H]2O[C@H](CO)[C@@H](O)[C@H](O)[C@H]2O[C@H]2C[C@](C)(N)[C@H](O)[C@H](C)O2)Oc2ccc(cc2Cl)[C@H]1O [Vancomycin, vancomycin, reference compound] | – | – | – | – | – | – | – | – | – | – | – | – | – | – | – | – | MIC ([6]; Staphylococcus aureus, ATCC25923, read-out: MIC): 1 µg/mL (≈ 0.69 µM); MIC ([7]; Staphylococcus aureus, ATCC6538, read-out: MIC): 1 µg/mL (≈ 0.69 µM); MIC ([8]; ATCC19115, read-out: MIC): 2 µg/mL (≈ 1.38 µM); MIC ([9]; Enterococcus faecalis, ATCC29212, read-out: MIC): 1 µg/mL (≈ 0.69 µM); MIC ([10]; Staphylococcus epidermidis, ATCC12228, read-out: MIC): 1 µg/mL (≈ 0.69 µM); MIC ([11]; ATCC6633, 18 h, read-out: MIC): 1 µg/mL (≈ 0.69 µM); MIC ([12]; Bacillus cereus): 1 µg/mL (≈ 0.69 µM)
